Key:
[1] = test system: Halomonas elongata DSMZ 2581; test: Growth of Halomonas elongata on lactate and crotonate as the carbon source (OD600); type: cell-based; conditions: 3 g/L crotonic acid alone; MM63 medium, 60 g/L NaCl, pH 8.0
Protocol: FIG. 30B: Growth of Halomonas elongata DSMZ 2581 in MM63 medium containing 3 g/L lactate, 3 g/L crotonate, and mixture of 3 g/L lactate and 3 g/L crotonate as indicated. MM63 medium contained 13.61 g/L KH·PO4, 4.21 g/L KOH, 1.98 (NH4)2SO4, 0.0011 g/L FeSO4—H2O 0.25 g/L MgSO4-7H2O, and 60 g/L NaCl set at pH=8.0. Points represent the average of three replicates and error bars are one standard deviation.
Media was prepared with MM63 minimal salts medium directly and used as a growth substrate for Halomonas elongata strain. MM63 minimal salts medium contains 13.61 g/L KH·PO4, 4.21 g/L KOH, 1.98 (NH4)2SO4, 0.0011 g/L FeSO4—H2O 0.25 g/L MgSO4-7H2O, 60 g/L NaCl. […] Assuming linearity in biomass to substrate loading, and assuming the major carbon source was crotonate and/or lactate, the increased optical density over time would indicate a high conversion of the substrates in the Halomonas strain.
Cell density was measured using a spectrophotometric assay detecting absorbance of each well/cuvette at 600 nm. The measurements were performed using a Thermo Scientific Genesys 150 spectrophotometer. A non-inoculated control was used to subtract background absorbance.

WT Halomonas elongata = test: Growth of WT Halomonas elongata on subcritical water products and ethylene glycol (OD600); type: cell-based; conditions: 5 g/L ethylene glycol; minimal salts medium, 60 g/L NaCl
Protocol: This was prepared with minimal salts medium directly and used as a growth substrate for the WT Halomonas elongata strain.
The SCW product contained 4.1 g/L EG, and the final medium preparation contained ˜1.6 g/L EG.

Molecule C/C=C/C(=O)O [crotonate, crotonic acid] has a final optical density [1] of 6.0.
With OCCO [ethylene glycol] the “final OD600” value (WT Halomonas elongata) was 3.16.

Source: patent publication US20250333573A1, “METHOD FOR TEXTILE AND POLYESTER DECONSTRUCTION AND UPCYCLING TO BIOPLASTIC IN A HALOPHILE” (Battelle Memorial Institute, priority 2024, published 2025)
